Data: ChEMBL document CHEMBL4811260, “Isolation, synthesis and absolute configuration of 4,5-dihydroxypiperines improving behavioral disorder in AlCl3-induced dementia” (2021)
Activity calls are given as the source filed them. The calls are words filed in the database; no cut-off is given here.

How the values were obtained:
Danio rerio [1] = species on record: Danio rerio; test: Antialzheimer activity against AlCl3-induced dementia zebrafish model assessed as increase in dyskinesia recovery rate at 10 uM measured for 60 mins under alternating light and dark environment in presence of 150 uM of AlCl3 relative to control; type: functional
Danio rerio [2] = species on record: Danio rerio; test: Antialzheimer activity against AlCl3-induced dementia zebrafish model assessed as increase in zebrafish movement speed change at 10 uM measured for 60 mins under alternating light and dark environment in presence of 150 uM of AlCl3; type: functional, organism-based
Danio rerio [3] = species on record: Danio rerio; test: Antialzheimer activity against AlCl3-induced dementia zebrafish model assessed as increase in response efficiency at 10 uM measured for 60 mins under alternating light and dark environment in presence of 150 uM of AlCl3 relative to control; type: functional
Danio rerio [4] = species on record: Danio rerio; test: Antialzheimer activity against AlCl3-induced dementia zebrafish model assessed as increase in zebrafish movement speed at 10 uM measured for 60 mins under alternating light and dark environment in presence of 150 uM of AlCl3; type: functional, organism-based

Compound	Activity (Danio rerio [1]; 1 h) [%]	Activity (Danio rerio [2])	Activity (Danio rerio [3]; 1 h) [%]	Activity (Danio rerio [4])	Activity (Danio rerio [1])	Activity (Danio rerio [3])
O=C(/C=C/[C@@H](O)[C@@H](O)c1ccc2c(c1)OCO2)N1CCCCC1	73.8	Active	85.4	Active		
O=C(/C=C/[C@H](O)[C@@H](O)c1ccc2c(c1)OCO2)N1CCCCC1					inactive	inactive
O=C(/C=C/[C@H](O)[C@H](O)c1ccc2c(c1)OCO2)N1CCCCC1					inactive	inactive
O=C(/C=C/[C@@H](O)[C@H](O)c1ccc2c(c1)OCO2)N1CCCCC1					inactive	inactive
